Results on 15 molecules are retold here after ChEMBL document CHEMBL4414554, “Colocalization Strategy Unveils an Underside Binding Site in the Transmembrane Domain of Smoothened Receptor” (J Med Chem, 2019).

The pIC50 is the negative decadic logarithm of the IC50, by convention in mol/L. The pKi is the negative decadic logarithm of the Ki, by convention in mol/L.

Assay [1] deals with T1, Protein smoothened (Homo sapiens, UniProt Q99835). Kind of assay: Binding affinity to recombinant human SMO at 0.1 to 20 uM preincubated for 1 hr followed by 365 nm UV irradiation for 20 mins and subsequent addition of TAMRA-N3 measured after 1 hr by fluorescence-based SDS-PAGE analysis.
The target of assay [2] is Protein smoothened (Mus musculus, UniProt P56726). Kind of assay: (§1) Antagonist activity at SMO in mouse NIH/3T3 cells harboring Gli-responsive firefly luciferase gene assessed as inhibition of SAG-induced response preincubated for 2 hrs followed by SAG addition and measured after 24 hrs by Bright-Glo luciferase assay. In kind it is cell-based.
Assay [3] deals with T1, Protein smoothened. Kind of assay: Displacement of BODIPY-LY from SMO (unknown origin) expressed in HEK293F cells measured after 15 mins by flow cytometric analysis. Format: cell-based. Background: In flow cytometry, cells or beads pass a laser one at a time.
In assay [4] the target is Protein smoothened (Mus musculus) (UniProt P56726). The description is as §1. In kind it is cell-based.
The target of assay [5] is T1, Protein smoothened. In words: Binding affinity to recombinant SMO Gly527 residue (unknown origin) assessed as modification of INLFAMFGTGIAMSTWVWTKATLLIWRR peptide at 20 uM preincubated for 3 hrs followed by UV irradiation for 15 mins by MS/MS analysis.
The target in assay [6] is T1, Protein smoothened. Kind of assay: Binding affinity to recombinant SMO His103 residue (unknown origin) at 20 uM preincubated for 3 hrs followed by UV irradiation for 15 mins by MS/MS analysis.
In assay [7] the target is T1, Protein smoothened. Kind of assay: Binding affinity to recombinant SMO Gly529 residue (unknown origin) assessed as modification of INLFAMFGTGIAMSTWVWTKATLLIWRR peptide at 20 uM preincubated for 3 hrs followed by UV irradiation for 15 mins by MS/MS analysis.
Assay [8] addresses T1, Protein smoothened. Kind of assay: Binding affinity to recombinant SMO Thr349 residue (unknown origin) at 20 uM preincubated for 3 hrs followed by UV irradiation for 15 mins by MS/MS analysis.
For assay [9], the target named is T1, Protein smoothened. Kind of assay: Binding affinity to recombinant SMO Ala345 residue (unknown origin) at 20 uM preincubated for 3 hrs followed by UV irradiation for 15 mins by MS/MS analysis.
In assay [10] the target is T1, Protein smoothened. Kind of assay: Binding affinity to recombinant SMO Thr528 residue (unknown origin) assessed as modification of INLFAMFGTGIAMSTWVWTKATLLIWRR peptide at 20 uM preincubated for 3 hrs followed by UV irradiation for 15 mins by MS/MS analysis.
The target of assay [11] is T1, Protein smoothened. Kind of assay: Binding affinity to recombinant SMO Glu158 residue (unknown origin) at 20 uM preincubated for 3 hrs followed by UV irradiation for 15 mins by MS/MS analysis.
The target of assay [12] is T1, Protein smoothened. In words: Binding affinity to recombinant SMO Leu498 residue (unknown origin) at 20 uM preincubated for 3 hrs followed by UV irradiation for 15 mins by MS/MS analysis.
The target of assay [13] is T1, Protein smoothened. Kind of assay: Binding affinity to recombinant SMO Lys186 residue (unknown origin) at 20 uM preincubated for 3 hrs followed by UV irradiation for 15 mins by MS/MS analysis.
The target in assay [14] is T1, Protein smoothened. Kind of assay: Binding affinity to recombinant SMO Glu135 residue (unknown origin) at 20 uM preincubated for 3 hrs followed by UV irradiation for 15 mins by MS/MS analysis.
The target of assay [15] is T1, Protein smoothened. Kind of assay: Binding affinity to recombinant SMO Glu518 residue (unknown origin) assessed as modification of NRPSLLVEK (511 to 519 residue) at 20 uM preincubated for 3 hrs followed by UV irradiation for 15 mins by MS/MS analysis.
The target in assay [16] is T1, Protein smoothened. Kind of assay: Binding affinity to recombinant SMO Lys510 residue (unknown origin) at 20 uM preincubated for 3 hrs followed by UV irradiation for 15 mins by MS/MS analysis.

pIC50, pKi: −log10 of the molar value. The source made the active and inactive calls. No cut-off for these calls is given here.

T1 sequence (Q99835 whole entry): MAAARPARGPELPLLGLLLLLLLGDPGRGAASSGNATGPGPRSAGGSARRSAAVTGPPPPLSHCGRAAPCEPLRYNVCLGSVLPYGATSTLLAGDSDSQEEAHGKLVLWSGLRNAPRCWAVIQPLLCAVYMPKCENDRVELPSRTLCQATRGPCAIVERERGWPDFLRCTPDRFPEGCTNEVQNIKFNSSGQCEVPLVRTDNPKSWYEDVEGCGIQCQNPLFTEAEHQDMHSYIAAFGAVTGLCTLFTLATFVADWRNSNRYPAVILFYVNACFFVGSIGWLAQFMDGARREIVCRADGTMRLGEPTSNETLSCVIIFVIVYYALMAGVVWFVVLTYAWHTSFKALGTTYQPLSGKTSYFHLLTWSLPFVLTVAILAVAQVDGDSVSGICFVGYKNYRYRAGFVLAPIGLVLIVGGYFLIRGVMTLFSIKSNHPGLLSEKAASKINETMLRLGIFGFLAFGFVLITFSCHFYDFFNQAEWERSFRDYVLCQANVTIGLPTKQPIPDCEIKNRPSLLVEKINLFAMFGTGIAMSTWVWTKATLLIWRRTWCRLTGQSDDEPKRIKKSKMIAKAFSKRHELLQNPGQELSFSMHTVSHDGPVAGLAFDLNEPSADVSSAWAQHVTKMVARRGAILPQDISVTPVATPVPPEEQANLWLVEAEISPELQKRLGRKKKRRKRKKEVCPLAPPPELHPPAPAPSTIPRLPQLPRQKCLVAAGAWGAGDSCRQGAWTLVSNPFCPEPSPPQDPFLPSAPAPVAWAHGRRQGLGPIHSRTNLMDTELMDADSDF
Protein smoothened (Mus musculus, UniProt P56726), sequence (P56726 whole entry): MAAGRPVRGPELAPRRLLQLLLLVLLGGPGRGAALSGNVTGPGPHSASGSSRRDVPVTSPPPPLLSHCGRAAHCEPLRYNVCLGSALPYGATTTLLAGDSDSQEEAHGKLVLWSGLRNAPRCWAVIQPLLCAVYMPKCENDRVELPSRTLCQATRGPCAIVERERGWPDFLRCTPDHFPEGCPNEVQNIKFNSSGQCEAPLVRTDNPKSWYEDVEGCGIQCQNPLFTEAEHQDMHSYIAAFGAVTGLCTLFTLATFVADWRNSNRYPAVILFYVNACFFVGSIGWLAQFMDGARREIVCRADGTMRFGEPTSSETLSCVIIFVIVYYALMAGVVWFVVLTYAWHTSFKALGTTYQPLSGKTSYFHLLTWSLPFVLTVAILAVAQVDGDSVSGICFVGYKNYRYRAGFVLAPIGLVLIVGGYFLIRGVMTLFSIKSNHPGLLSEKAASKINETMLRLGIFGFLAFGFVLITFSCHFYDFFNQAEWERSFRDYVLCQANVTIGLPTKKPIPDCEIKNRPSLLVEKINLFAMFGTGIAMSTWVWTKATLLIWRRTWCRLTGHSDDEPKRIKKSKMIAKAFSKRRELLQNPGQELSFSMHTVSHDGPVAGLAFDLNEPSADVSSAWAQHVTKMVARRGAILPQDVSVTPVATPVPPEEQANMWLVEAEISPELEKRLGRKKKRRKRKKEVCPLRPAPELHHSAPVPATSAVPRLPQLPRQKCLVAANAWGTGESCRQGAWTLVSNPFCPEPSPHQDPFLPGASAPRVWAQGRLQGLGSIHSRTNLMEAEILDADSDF
Protein smoothened (Mus musculus), sequence (P56726 whole entry): as above

On to `C#CCOc1ccc(N2C(=O)[C@H](C)N(Cc3ccc(N=[N+]=[N-])cc3)C2=O)cc1`, for which the outcome in assay [1] was Active. For the same molecule, the pIC50 in [2] was 7.51. This molecule also gave a pKi in assay [3] of 7.55.
Take `C[C@H]1C(=O)N(c2ccc(Cl)cc2)C(=O)N1Cc1ccc(C2(C(F)(F)F)N=N2)cc1`: the result in [4] was inactive. For the same molecule, in assay [3], the inhibition result is “inactive”.
With `C[C@H]1C(=O)N(Cc2ccc(Cl)cc2)C(=O)N1Cc1ccccc1`, the negative logarithm of the IC50 (pIC50) in assay [2] is 5.09.
Molecule `FC(F)(F)Oc1ccc(-c2ccnc(Nc3ccc4[nH]ncc4c3)n2)cc1` had a pKi in [3] of 7.52.
For `C[C@H]1C(=O)N(c2ccc(Cl)cc2)C(=O)N1CCc1ccccc1`, the pIC50 in assay [2] was 7.04.
In the case of `C[C@H]1C(=O)N(c2ccc(Cl)cc2)C(=O)N1Cc1ccccc1`, the pIC50 in assay [2] is 7.23. The molecule also had a pKi in [3] of 7.48.
Take `C[C@H]1C(=O)N(C2CCCCC2)C(=O)N1Cc1ccccc1`: the pIC50 in [2] was 5.10.
With `C[C@H]1C(=O)N(c2c(F)c(F)c(F)c(F)c2F)C(=O)N1Cc1ccccc1`, the negative-log IC50 (pIC50) in [2] was 5.81.
As to `C[C@H]1C(=O)N(c2ccc(Cl)cc2)C(=O)N1Cc1ccc(N=[N+]=[N-])cc1`, the outcome in assay [5], in [6], in [7], in [8], in [9] and in [10] was Active. The outcome in [11] was Active. The pIC50 in assay [2] is 8.52. The molecule also gave a pKi in [3] of 7.35.
On to `C[C@H]1CN(c2ccc(Cl)cc2)C(=O)N1Cc1ccccc1`, for which the pIC50 in [2] was 5.34.
As for `C[C@H]1C(=O)N(c2ccc(Cl)cc2)C(=S)N1Cc1ccccc1`, the pIC50 in assay [2] is 5.42.
Turning to `C[C@H]1C(=O)N(c2ccc(Cl)cc2)C(=O)N1Cc1c(F)c(F)c(F)c(F)c1F`, the pIC50 in assay [2] is 5.13.
As to `C[C@H]1C(=O)N(c2ccc(Cl)cc2)C(=O)N1CC1CCCCC1`, in assay [2], the pIC50 is 6.42.
As for `C[C@H]1C(=O)N(c2ccc(N=[N+]=[N-])cc2)C(=O)N1Cc1ccccc1`, the outcome in assay [12], in assay [13], in assay [14], in [15] and in assay [16] was Active. For the same molecule, the pIC50 in assay [2] is 7.24. The pKi in assay [3] is 7.26.
Consider `C[C@H]1C(=O)N(c2ccc(Cl)cc2)C(=O)N1c1ccccc1`, for which the pIC50 in assay [2] was 6.26.
